{
  "source": "paper PMC6052416",
  "about": "“Selective inhibition of carbonic anhydrase-IX by sulphonamide derivatives induces pH and reactive oxygen species-mediated apoptosis in cervical cancer HeLa cells” (Journal of Enzyme Inhibition and Medicinal Chemistry, 2018)",
  "key": {"hCA IX": {"target": "hCA IX", "set-up": "method as in PMID 25913118, PMID 26803577", "conditions": "cited from earlier work"}, "HeLa cells [1]": {"tested_on": "HeLa cells", "test": "Mitochondrial membrane potential (JC-1)", "assay_type": "cell-based, human", "conditions": "JC-1, 0–200 μM, 24 h", "method": "Mitochondrial membrane potential (MMP) changes appearing in the intrinsic pathway of mitochondria were spectrophotometrically detected. MMP was measured in a fluorometry device (Spectramax, M5), at wavelengths of 490 nm (excitation) and 530 nm(emission) according to the fluorometric Mitochondria Staining Kit (Sigma, Germany, CS0390) protocol."}, "[2]": {"tested_on": "HT-29 (colon adenoma cancer)", "test": "WST-1 cytotoxicity, HT-29", "assay_type": "cell-based, human", "method": "(§1) Cancer and normal cell lines were purchased from ATCC and stored in liquid nitrogen. HT-29 (colon adenoma cancer), HeLa (cervix adenoma cancer cell), MDA-MB-231 (breast adenoma cancer cell), HEK-293 (embryonic kidney epithelial cell) and PNT-1A (normal prostate cells) cell lines were incubated in DMEM: F-12 and RPMI-1640, including 10% foetal bovine serum (FBS), 100 µg/mL streptomycin/100 IU/mL penicillin, at 37 °C in an incubator containing 5% CO2, 95% air in a humid atmosphere.\n(§2) The cytotoxic effects of the substances were evaluated with WST-1 kits (Roche, Germany) in accordance with the manufacturer’s protocols. The cells were planted in 96-well plates (10^4 cells in each well). After incubation for 24 h, the media were discarded and the substances and 5-Fu as the control drug, at doses of 0, 2.5, 5, 10, 25, 50, 100 and 200 µM, were incubated for 24, 48 and 72 h. WST-1 reactive of 10 µL was added to all wells. Following 4-h incubation, the measurements were taken on a plate reader (Spectramax M5) at wavelengths of 450 and 630 nm. Graphs were then created and the IC50 value of each substance was calculated."}, "[3]": {"tested_on": "PNT-1A (normal prostate cells)", "test": "WST-1 cytotoxicity, PNT-1A", "assay_type": "cell-based", "conditions": "normal cell", "method": "as §1, §2"}, "HeLa cells [4]": {"tested_on": "HeLa cells", "test": "Intracellular pH, extracellular pH and lactate level", "assay_type": "cell-based, human", "method": "Intracellular PH was measured according to the protocol of the fluorometric intracellular pH assay kit (Sigma, Germany, MAK-150). Fluorescent BCFL-AM indicator that was able to pass through the cell membrane was used to measure pHi fluctuations in the fluorometric intracellular pH kit. BCFL-AM was utilised to measure the reductions in pHi of the cells that had been treated by various conditions. The cells were planted in black plates, as 6 × 10^4 in each well of the plate, and incubated for 24 h. The medium was replaced with BCFL-AM reagent which had been prepared in 100 µL of HBS solution (Hank’s buffer with 20 mM HEPES, 5 mM probenecid), then the cells were incubated at 37 °C in an atmosphere of 5% CO2 for 30 min (protected from light). Sulphonamide compound at doses of 0, 10, 25 and 50 µM was added to the HBS solution. In the next 5 min, the measurement was performed at wavelengths of 490 nm (excitation) and 535 nm (emission) in spectrofluorimetry (Spectramax, M5). Extracellular pH (pHe) and lactate levels were measured with commercial kit by the blood gas device (ABL90 FLEX PLUS, Radiometer, Copenhagen, Denmark) which is routinely used in the clinical biochemistry laboratory of hospital. After the application of the substance in this method, the media were analysed directly by the device."}, "[5]": {"tested_on": "HeLa (cervix adenoma cancer cell)", "test": "WST-1 cytotoxicity, HeLa", "assay_type": "cell-based, human", "method": "as §1, §2"}},
  "note": "Like-named read-outs stand apart in the source and are kept apart here.",
  "data": [
    {"smiles": "NS(=O)(=O)c1ccc(CCN=Cc2cc(Br)ccc2O)cc1", "note": "[Compound 1]", "values": [
      {"measurement": "Ki", "setting": "hCA IX", "result": 0.187, "unit": "µM"},
      {"measurement": "mitochondrial membrane potential (MMP)", "setting": "HeLa cells [1]", "result": "reduced in a dose-dependent manner"},
      {"measurement": "IC50", "setting": "[2]; WST-1, 24 h, read-out: IC50 HT-29 24 h", "result": "46.1 ± 5.4", "unit": "µM"},
      {"measurement": "IC50", "setting": "[2]; WST-1, 48 h, read-out: IC50 HT-29 48 h", "result": "43.8 ± 1.2", "unit": "µM"},
      {"measurement": "IC50", "setting": "[2]; WST-1, 72 h, read-out: IC50 HT-29 72 h", "result": "108 ± 34.5", "unit": "µM"},
      {"measurement": "IC50", "setting": "[3]; WST-1, 48 h, read-out: IC50 PNT-1A 48 h", "result": "86.2 ± 12.1", "unit": "µM"},
      {"measurement": "IC50", "setting": "[3]; WST-1, 72 h, read-out: IC50 PNT-1A 72 h", "result": "197 ± 11.2", "unit": "µM"},
      {"measurement": "lactate level of media", "setting": "HeLa cells [4]; HeLa cell media", "result": "significant dose-related fall"},
      {"measurement": "pHe", "setting": "HeLa cells [4]; HeLa cell media", "result": "significant increase"},
      {"measurement": "pHi", "setting": "HeLa cells [4]; HeLa, 0, 10, 25 and 50 µM", "result": "significant dose-related fall"},
      {"measurement": "IC50", "setting": "[5]; WST-1, 24 h, mean of three experiments, read-out: IC50 HeLa 24 h", "result": "19.9 ± 1.1", "unit": "µM"},
      {"measurement": "IC50", "setting": "[5]; WST-1, 48 h, read-out: IC50 HeLa 48 h", "result": "18.8 ± 1.1", "unit": "µM"},
      {"measurement": "IC50", "setting": "[5]; WST-1, 72 h, read-out: IC50 HeLa 72 h", "result": "11.3 ± 1.1", "unit": "µM"}
    ]}
  ]
}
